Laboratory results reported in patent US4215136A, “Insoluble metal salts of N-acetyl-tryptophane and use thereof” (Cooperation Pharmaceutique Francaise, priority 1976, dated 1980).
Read-outs that look alike come from different tables or passages of the source.

How the values were obtained:
[1] = "Shay ulcer" test (pylorus ligature); type: in vivo, female rats (Sprague-Dawley OFA Iffa-Credo)
Procedure: (A) Tests by the technique called "Shay ulcer" [Gastroenterology, 5, 43, (1945)].
The study was carried out on female rats [Sprague-Dawley OFA Iffa-Credo] weighing 170±10 g, conforming to the experimental protocol described below.
After fasting 48 hours, during which the rats had always available to them a 20% glucose solution, the pylorus was ligated and all beverage was eliminated.
Compound A in the form of two suspensions respectively 5 and 10% in distilled water containing 3% of gum arabic was administered orally and before the ligature of the pylorus to three groups of animals, the animals of the first two groups receiving the 5% solution and those of the third the 10% solution. These three groups of animals received active substance to the extent respectively of 250 mg/kg as regards those of the first group, 500 mg/kg as regards those of the second and 1000 mg/kg those of the third. A fourth group and control group of animals received 10 ml/kg of bidistilled water. […]
The tests having been carried out with aluminium acetyl-tryptophanate (compound A), on the one hand, and with titanium acetyl-tryptophanate (compound B), on the other hand, for each of these compounds there was determined, the "anti-ulcer dose 50" (or again active dose AD 50) by oral administration; for this determination the method of Litchfield and Wilcoxon [J. Pharmacol. 96, 98-111 (1949)], was employed. […]

[2] = "stress ulcer" test (immobilization); type: in vivo, female S.P.F. Sprague-Dawley OFA Iffa-Credo rats
Procedure: (B) Tests according to the technique called "stress ulcer". Rossi and Bonfils--Compte rendus de la Societe de Biologie, (1956), 150, page 2124.
The study was carried out on female S.P.F. Sprague-Dawley OFA Iffa-Credo rats, weighing 140±10 g and adhering to the following experimental protocol.
To cause the ulcer, the animals were immobilized in a flexible grid with meshes of 4×4 mm and suspended horizontally; they received neither food nor drink. They were sacrificed at the end of 24 hours. The stomachs were removed and opened and then the ulcers were counted with a binocular lens.
Each stomach was assessed according to the method of J. M. LWOFF and the ulceration index calculated.
The compound A suspended in distilled water with 3% of gum arabic was administered 48 hours and 24 hours before and at the time of placing under stress to three groups of animals. These animals each received by the oral route, 500, 1000 and 1500 mg/kg of this compound according to their group.
A control group received for three days, orally gummy water in the amount of 1 ml/100 g.
As in the case of "Shay ulcer" the same study was reproduced with kaolin.
The kaolin was suspended in distilled water with 3% of gum arabic and was administered by the buccal route 48 hours and 24 hours before and at the time of placing under stress. […]

[3] = "stress ulcer" technique aggravated by para-chloro-phenyl-alanine (PCPA); type: in vivo, female S.P.F. Sprague-Dawley OFA Iffa-Credo rats; details: PCPA 100 mg/kg intraperitoneally
Procedure: (C) Tests according to the "stress ulcer" technique aggravated by para-chloro-phenyl-alanine (PCPA) administered in a non-blocking dose.
The rats used were of the same sex, same strain and had the same weight as those used in the tests described under B. The experimental protocol was also the same.
However, in these tests the rats received intraperitoneally, at the time of stressing, 100 mg/kg of PCPA in suspension in distilled water including 3% of gum arabic and an "absolute control" group was provided having received no preparation before placing under stress.
By reason of the aggravation of the ulcers caused by the PCPA, the Lwoff assessment is no longer usable and is replaced by the following:
2 : three to four ulcers in the form of
5 : one to two ulcers in the form of "fur-
6 : three to four ulcers least 5 mm in length
with a maximum of 4 + 6 = 10.
In this way it was possible to determine the ulceration index and the percentage inhibition with respect to the controls.

[4] = anti-ulcer activity after administering reserpine; type: in vivo, Sprague-Dawley female rats, OFA S.P.F. Iffa Credo strain; details: p.o., 3 hours before and 3 hours after reserpine 5 mg/kg i.p.; Litchfield and Wilcoxon; 1200 min
Procedure: (D) Study of the anti-ulcer activity of compound A (D,L) and of compound B (D,L) after administering reserpine.
The technique used was that of Cohen and A. Pessonnier (Ann. Pharm. Fr (1963) 21, 215-22) according to the following protocol:
Sprague-Dawley female rats were used, of OFA S.P.F. Iffa Credo strain weighing 150±20 g; the rats received a single injection by the intraperitoneal route of 5 mg/kg of reserpine in solution in 0.25% acetic acid; the compound studied were administered twice by the buccal route: three hours before and three hours after the injection of reserpine; the rats were sacrificed 20 hours after the injection of reserpine; the assessment was established as follows:
1 = one to two ulcers in the form of small
2 = more than two ulcers
3 = one to two ulcers in the form of more or
4 = more than two ulcers
5 = one to two ulcers in the form of "furrows"
measuring at least 5 mm
6 = more than two ulcers
Maximum assessment for one stomach : 2 + 4 + 6 = 12
From the results obtained the ulceration index was deduced; the percentage of inhibition was calculated with respect to the index obtained in the controls.
The values of the AD50 calculated according to the method of Litchfield and Wilcoxon are: […]

[5] = Activity on intestinal passage (vegetable carbon); type: in vivo, male mice; details: 2, 4 and 6 g/kg buccally; 10 minutes
Procedure: II--Activity on intestinal passage:
Male mice, fasting for 24 hours, weighing 18-20 g. were used.
The substances to be tested were administered buccally before a suspension of vegetable carbon (10 g/100 ml).
After 10 minutes, the animals were bled and the intestine was removed and examined.

[6] = Interaction with a monoamine-oxidase inhibitor (MAOI, Tylciprine); type: in vivo, Sprague-Dawley male rats of OFA strain; details: for central nervous action indicated by hyperthermia and hyperactivity: with MAOI (Tylciprine)
Procedure: III--Action on the central nervous system:
(A) Interaction with a monoamine-oxidase inhibitor (MAOI):
Sprague-Dawley male rats of OFA strain received 20 mg/kg intra peritoneally of Tylciprine (MAOI) and twenty minutes later, 3 g/kg of compound A (D,L) bucally.

[7] = type: in vivo, male rats
Source text: (B) Interaction with a MAOI after treatment with P.C.P.A.
If the test is renewed under the same conditions but on male rats previously treated by decreasing doses of P.C.P.A. which is a tryptophane-hydroxylase inhibitor, it is observed that: […]

[8] = 8640 min
[9] = 2 g/kg, Tylciprine 20 mg/kg i.p.
[10] = 3 g/kg bucally, Tylciprine 20 mg/kg i.p.
[11] = after PCPA 6 mg/kg for 1 day, Tylciprine

SMILES: CC(=O)N[C@@H](Cc1c[nH]c2ccccc12)C(=O)[O-].CC(=O)N[C@@H](Cc1c[nH]c2ccccc12)C(=O)[O-].CC(=O)N[C@@H](Cc1c[nH]c2ccccc12)C(=O)[O-].[Al+3] [Compound A, monobasic-(DL) aluminium N-acetyl-tryptophanate]
- activity relative to that expected by reason of Al^3+ / Ti^4+ ions alone ([1]; Shay ulcer): about 7 times higher
- AD 50 (anti-ulcer dose 50), Shay ulcer ([1]; oral, before ligature of the pylorus, 18 hours, Litchfield and Wilcoxon): 550 mg/kg
- AD 50, stress ulcer ([2]; buccal route, 48 h and 24 h before and at time of stress, sacrificed at 24 hours): 700 mg/kg
- superiority of compound A (over kaolin), stress ulcer versus Shay ulcer ([2]; stress ulcer compared with Shay ulcer): still much more marked
- anti-ulcer activity, stress ulcer aggravated by PCPA (in words) [3]: still considerable
- AD50, stress ulcer aggravated by PCPA ([3]; oral route): 1325 mg/kg
- AD50, reserpine ulcer [4]: 1447 mg/kg
- increase of intestinal passage with respect to the controls [5]: No significant increase
- hyperactivity [6, 9]: notable hyperactivity
- hyperthermia [6, 9]: does not cause hyperthermia
- hyperthermia ([6]; 3 g/kg bucally, 20 minutes after Tylciprine 20 mg/kg i.p.): Hyperthermia was observed which commenced fairly rapidly
- hyperactivity [6, 10]: hyperactivity
- onset of hyperactivity [6, 10]: 80 min
- time of maximum hyperactivity [6, 10]: 155 min
- time of maximum hyperthermia [6, 10]: 185 min
- central nervous action indicated by hyperthermia and hyperactivity [6]: apparently central nervous serotoninergic action, that is to say antidepressive
- hyperactivity [7, 11]: notable hyperactivity
- rectal temperature [7, 11]: without variation in the rectal temperature
- hyperactivity ([7]; after PCPA 12.5 mg/kg for 1 day, Tylciprine): first signs of hyperactivity
- hyperthermia and hyperactivity ([7]; after PCPA 50 mg/kg for 2 days, Tylciprine): neither hyperthermia nor hyperactivity
- passage through the hemato-cerebral barrier ([7]; rat, in vivo): passage of its anion through the hemato-cerebral barrier
- LD50 (higher than the total dose without mortality) ([8]; oral, six days): > 15000 mg/kg
- LD 50 ([8]; orally): > 15000 mg/kg

SMILES: N[C@@H](Cc1c[nH]c2ccccc12)C(=O)O [L-tryptophane]
- central nervous action indicated by hyperthermia and hyperactivity [6]: comparable activities
